The text below walks through data of paper doi:10.1101/2022.07.12.499690v1 (biorxiv, 2022).

This assay addresses PD-L1 (Homo sapiens, UniProt Q9NZQ7). The assay can be described thus: bio-affinity ultrafiltration, UPLC-HRMS. Format: binding. The conditions noted are these: […] h incubation with compound; denatured PD-L1 as control.

Chain of PD-L1 (Q9NZQ7 19-290): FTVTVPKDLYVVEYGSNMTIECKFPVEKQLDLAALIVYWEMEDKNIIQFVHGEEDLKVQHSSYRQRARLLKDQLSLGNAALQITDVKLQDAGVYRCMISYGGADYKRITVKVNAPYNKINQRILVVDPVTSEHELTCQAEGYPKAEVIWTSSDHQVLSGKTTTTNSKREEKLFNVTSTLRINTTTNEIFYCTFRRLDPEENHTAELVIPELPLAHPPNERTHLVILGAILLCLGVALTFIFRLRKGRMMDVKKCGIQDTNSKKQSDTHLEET

For `NCCc1c[nH]c2ccccc12` [tryptamine], the “relative peak area enhancement” value was determined as 40.98%.
